Data set [1] in a line: log P determination by HPLC on reversed-phase column (C18), acidic range. It is filed as physicochemical. Conditions: LC-UV, formic acid in water/acetonitrile. On the procedure:
log P Values The log P values were determined according to EEC Directive 79/831 Annex V.A8 by HPLC (high-performance liquid chromatography) on a reversed-phase column (C18) using the following methods: ^[a] […] Calibration was carried out using a homologous series of straight-chain alkan-2-ones (having 3 to 16 carbon atoms) with known log P values. The values between successive alkanones are determined by linear regression.

The test system of a further data set is Boophilus microplus. Put plainly: Boophilus microplus injection test. It is filed as in vivo. Conditions: 20 μg/animal, injection into engorged adult female cattle ticks, assessed after 7 days. On the procedure: Boophilus microplus—Injection Test Solvent: dimethyl sulfoxide To produce a suitable active compound formulation, 10 mg of active compound are mixed with 0.5 ml of solvent and the concentrate is diluted to the desired concentration with solvent. 1 μl of the active compound solution is injected into the abdomen of 5 engorged adult female cattle ticks (Boophilus microplus). The animals are transferred into dishes and kept in a climate-controlled room. Efficacy is assessed after 7 days by laying of fertile eggs. Eggs which are not visibly fertile are stored in a climate-controlled cabinet until the larvae hatch after about 42 days. An efficacy of 100% means that none of the ticks has laid any fertile eggs; 0% means that all the eggs are fertile.

The next data set has as its system Ctenocephalides felis. The data set can be described thus: Ctenocephalides felis oral test. It is filed as in vivo. Conditions: 100 ppm in citrated cattle blood, adult cat fleas, after 2 days. The method, then:
Ctenocephalides felis—Oral Test
Solvent: dimethyl sulfoxide
To produce a suitable active compound formulation, 10 mg of active compound are mixed with 0.5 ml of dimethyl sulfoxide. Dilution with citrated cattle blood gives the desired concentration.
About 20 unfed adult cat fleas (Ctenocephalidesfelis) are placed into a chamber which is closed at the top and bottom with gauze. A metal cylinder whose bottom end is closed with parafilm is placed onto the chamber. The cylinder contains the blood/active compound formulation, which can be imbibed by the fleas through the parafilm membrane.
After 2 days, the kill in % is determined. 100% means that all of the fleas have been killed; 0% means that none of the fleas have been killed.

Data set [2] relates to Myzus persicae. Put plainly: Myzus persicae oral test. Type of data set: in vivo. Conditions: 120 h, oral uptake from microtitre plates, after 5 days, read-out: efficacy (aphids killed). On the procedure:
Myzus persicae—Oral Test Solvent: 100 parts by weight of acetone To produce a suitable preparation of active compound, 1 part by weight of active compound is dissolved using the specified parts by weight of solvent and made up with water until the desired concentration is attained. 50 μl of the active compound preparation are transferred into microtitre plates and made up to a final volume of 200 μl with 150 μl of IPL41 insect medium (33%+15% sugar). Subsequently, the plates are sealed with parafilm, which a mixed population of green peach aphids (Myzus persicae) within a second microtitre plate is able to puncture and imbibe the solution through. After 5 days, the efficacy in % is determined. 100% means that all the aphids have been killed; 0% means that no aphids have been killed.

The test system of a further data set is Spodoptera frugiperda. Put plainly: Spodoptera frugiperda spray test. Conditions: 100 g/ha, maize leaf discs, after 7 days. Type of data set: in vivo. On the procedure: Spodoptera frugiperda—Spray Test
(§1) Solvent: 78.0 parts by weight of acetone • • 1.5 parts by weight of dimethylformamide
(§2) Emulsifier: alkylaryl polyglycol ether
(§3) To produce a suitable active compound preparation, 1 part by weight of active compound is dissolved using the stated parts by weight of solvent and made up with water containing an emulsifier concentration of 1000 ppm until the desired concentration is attained. To produce further test concentrations, the formulation is diluted with emulsifier-containing water.
Leaf discs of maize (Zea mays) are sprayed with an active compound formulation of the desired concentration and, after drying, populated with caterpillars of the fall armyworm (Spodopterafrugiperda).
After 7 days, the efficacy in % is determined. 100% means that all the caterpillars have been killed; 0% means that no caterpillar has been killed.

The next data set concerns Meloidogyne incognita. The data set can be described thus: Meloidogyne incognita test. The conditions noted are these: 20 ppm, lettuce in sand, after 14 days. It is filed as in vivo. On the procedure: Meloidogyne incognita test Solvent: 125.0 parts by weight of acetone To produce a suitable active compound formulation, 1 part by weight of active compound is mixed with the stated amount of solvent and the concentrate is diluted to the desired concentration with water. Vessels are filled with sand, active compound solution, an egg/larvae suspension of the southern root-knot nematode (Meloidogyne incognita) and lettuce seeds. The lettuce seeds germinate and the plants develop. The galls develop on the roots. After 14 days, the nematicidal efficacy in % is determined by the formation of galls. 100% means that no galls were found; 0% means that the number of galls on the treated plants corresponds to the untreated control.

Data set [3] concerns Myzus persicae. The data set can be described thus: Myzus persicae spray test. Type of data set: in vivo. Conditions: foliar, 120 h, Chinese cabbage leaf discs, after 5 days, read-out: efficacy (aphids killed). The method, then: Myzus persicae—Spray Test Solvent: 78 parts by weight of acetone • • 1.5 parts by weight of dimethylformamide Emulsifier: alkylaryl polyglycol ether To produce a suitable active compound preparation, 1 part by weight of active compound is dissolved using the stated parts by weight of solvent and made up with water containing an emulsifier concentration of 1000 ppm until the desired concentration is attained. To produce further test concentrations, the formulation is diluted with emulsifier-containing water. Discs of Chinese cabbage leaves (Brassica pekinensis) infested by all stages of the green peach aphid (Myzus persicae) are sprayed with an active compound formulation of the desired concentration. After 5 days, the efficacy in % is determined. 100% means that all the aphids have been killed; 0% means that no aphids have been killed.

A further data set concerns Phaedon cochleariae. The data set can be described thus: Phaedon cochleariae spray test. Type of data set: in vivo. Conditions: 100 g/ha, Chinese cabbage leaf discs, after 7 days. On the procedure:
Phaedon cochleariae—Spray Test
as §1, §2, §3
Discs of Chinese cabbage leaves (Brassica pekinensis) are sprayed with an active compound formulation of the desired concentration and, after drying, populated with larvae of the mustard beetle (Phaedon cochleariae).
After 7 days, the efficacy in % is determined. 100% means that all the beetle larvae have been killed; 0% means that no beetle larvae have been killed.

The next data set relates to Diabrotica balteata. Put plainly: Diabrotica balteata spray test. It is filed as in vivo. Conditions: 160 μg/cavity, sprayed germinated wheat grains, beetle larvae, after 7 days. The method, then: Diabrotica balteata—Spray Test Solvent: 78 parts by weight of acetone • • 1.5 parts by weight of dimethylformamide Emulsifier: alkylaryl polyglycol ether To produce a suitable active compound preparation, 1 part by weight of active compound is dissolved using the stated parts by weight of solvent and made up with water containing an emulsifier concentration of 1000 ppm until the desired concentration is attained. To produce further test concentrations, the formulation is diluted with emulsifier-containing water. Pre-swollen wheat grains (Triticum aestivum) are incubated in a multiwell plate filled with agar and a little water for one day (5 seed grains per cavity). The germinated wheat grains are sprayed with an active compound preparation of the desired concentration. Subsequently, each cavity is infected with 10-20 beetle larvae of Diabrotica balteata. After 7 days, the efficacy in % is determined. 100% means that all wheat plants have grown as in the untreated, uninfected control; 0% means that no wheat plant has grown.

In a further data set the test system is Tetranychus urticae. The data set can be described thus: Tetranychus urticae spray test, OP-resistant. Type of data set: in vivo. The conditions noted are these: 100 g/ha, bean leaf discs, after 6 days. On the procedure: Tetranychus urticae—Spray Test, OP-Resistant
as §1, §2, §3
Discs of bean leaves (Phaseolus vulgaris) infested with all stages of the greenhouse red spider mite (Tetranychus urticae) are sprayed with an active compound formulation of the desired concentration.
After 6 days, the efficacy in % is determined. 100% means that all the spider mites have been killed; 0% means that no spider mites have been killed.

The source of these data is US20210017193A1, “CONDENSED BICYCLIC HETEROCYCLIC DERIVATIVES AS PEST CONTROL AGENTS” (Bayer Aktiengesellschaft, priority 2018, published 2021).

What is called chromatographic logP is lipophilicity estimated from chromatographic retention. Low values mean a more hydrophilic compound, high ones a more lipophilic compound. As for `Cn1c(C(F)(F)F)cc2nc(-c3nc4n(c3Br)CCC(C)(C)C4)n(C)c2c1=O` [2-(3-Bromo-7,7-dimethyl-6,8-dihydro-5H-imidazo[1,2-a]pyridin-2-yl)-3,5-dimethyl-6-(trifluoromethyl)imidazo[4,5-c]pyridin-4-one], in data set [1], the chromatographic logP was determined as 3.14.

On to `CC1(C)CCn2c(nc(C(=O)O)c2Br)C1` [3-Bromo-7,7-dimethyl-6,8-dihydro-5H-imidazo[1,2-a]pyridine-2-carboxylicacid], for which the chromatographic logP in [1] came to 0.67.

Take `CCS(=O)(=O)c1c(-c2nc3cc(C(F)(F)F)n(C)c(=O)c3n2C)nc2cc(C(F)(F)F)ccn12` [Example I-01, 2-[3-(Ethylsulfonyl)-7-(trifluoromethyl)imidazo[1,2-a]pyridin-2-yl]-3,5-dimethyl-6-(trifluoromethyl)-3,5-dihydro-4H-imidazo[4,5-c]pyridin-4-one]: in the data set with Boophilus microplus, the “efficacy (laying of fertile eggs)” value amounted to 100%. Besides, the “efficacy (kill in %)” value with Ctenocephalides felis came out at 95%. In addition, the pest or weed control at 4 ppm in the data set on Myzus persicae [2] turned out to be 100%. The “efficacy (caterpillars killed)” value in the data set with Spodoptera frugiperda turned out to be 100%. In [1], this molecule yielded a chromatographic logP of 3.2.

Turning to `CCS(=O)(=O)c1c(-c2nc3cc(C(F)(F)F)n(C)c(=O)c3n2C)nc2cc(C3(C#N)CC3)ccn12` [Example I-02, 1-{2-[3,5-Dimethyl-4-oxo-6-(trifluoromethyl)-4,5-dihydro-3H-imidazo [4,5-c]pyridin-2-yl]-3-(ethylsulfonyl)imidazo[1,2-a]pyridin-7-yl}cyclopropanecarbonitrile], the “efficacy (kill in %)” value in the data set with Ctenocephalides felis was 100%. In addition, the “nematicidal efficacy (formation of galls)” value in the data set with Meloidogyne incognita is recorded as 100%. In the data set with Myzus persicae [3], the pest or weed control at 100 g/ha was determined as 100%. The pest or weed control at 4 ppm with Myzus persicae [2] was 100%. Besides, the “efficacy (beetle larvae killed)” value in the data set on Phaedon cochleariae amounted to 100%. Besides, the “efficacy (caterpillars killed)” value in the data set with Spodoptera frugiperda is recorded as 100%. In data set [1], the chromatographic logP turned out to be 2.59.

Consider `CCS(=O)(=O)c1c(-c2nc3cc(C(F)(F)F)n(C)c(=O)c3n2C)nc2n1CCCC2` [Example I-03, 2-[3-(Ethylsulfonyl)-5,6,7,8-tetrahydroimidazo[1,2-a]pyridin-2-yl]-3,5-dimethyl-6-(trifluoromethyl)-3,5-dihydro-4H-imidazo[4,5-c]pyridin-4-one], for which the pest or weed control at 100 g/ha in the data set with Myzus persicae [3] amounted to 90%. Besides, the pest or weed control at 4 ppm in the data set with Myzus persicae [2] came out at 100%. In [1], this molecule registered a chromatographic logP of 2.03.

Regarding `CCS(=O)(=O)c1c(-c2nc3cc(C(F)(F)F)n(C)c(=O)c3n2C)nc2n1CC(C)CC2` (centres unmarked) [Example I-04], the pest or weed control at 100 g/ha in the data set on Myzus persicae [3] is 100%. For the same molecule, the pest or weed control at 4 ppm in the data set on Myzus persicae [2] is 100%.

On to `CCS(=O)(=O)c1c(-c2nc3cc(C(F)(F)F)n(C)c(=O)c3n2C)nc2n1CCC(C)C2` (centres unmarked) [Example I-05], for which, in the data set with Meloidogyne incognita, the “nematicidal efficacy (formation of galls)” value was 90%. In the data set with Myzus persicae [3], the pest or weed control at 100 g/ha worked out at 100%. In the data set with Myzus persicae [2], the pest or weed control at 4 ppm amounted to 100%.

`CCS(=O)(=O)c1c(-c2nc3cc(C(F)(F)F)n(C)c(=O)c3n2C)nc2n1CCC(C(F)(F)F)C2` (centres unmarked) [Example I-06]: the efficacy with Diabrotica balteata was 100%. In the data set on Myzus persicae [2], the pest or weed control at 4 ppm turned out to be 100%. Besides, the “efficacy (caterpillars killed)” value with Spodoptera frugiperda was 100%.

For the molecule `CCS(=O)(=O)c1c(-c2nc3cc(C(F)(F)F)n(C)c(=O)c3n2C)nc2cc(C(F)(F)C3CC3)ccn12` [Example I-07], in the data set on Diabrotica balteata, the efficacy is reported as 100%. For the same molecule, the pest or weed control at 4 ppm with Myzus persicae [2] was 100%. In addition, the “efficacy (caterpillars killed)” value with Spodoptera frugiperda came out at 100%.

In the case of `CCS(=O)(=O)c1c(-c2nc3cc(C(F)(F)F)n(C)c(=O)c3n2C)nc2cc(C(=O)C3CC3)ccn12` [Example I-08], the efficacy in the data set on Diabrotica balteata turned out to be 100%. Moreover, the pest or weed control at 100 g/ha in the data set on Myzus persicae [3] amounted to 90%. The pest or weed control at 4 ppm in the data set on Myzus persicae [2] is 100%. Besides, the “efficacy (caterpillars killed)” value with Spodoptera frugiperda amounted to 100%.

As to `CCS(=O)(=O)c1c(-c2nc3cc(C(F)(F)F)n(C)c(=O)c3n2C)nc2n1CCC(C)C2C` (centres unmarked) [Example I-09], the efficacy in the data set on Diabrotica balteata turned out to be 100%. Moreover, the pest or weed control at 100 g/ha in the data set on Myzus persicae [3] is 90%. Besides, in the data set with Myzus persicae [2], the pest or weed control at 4 ppm turned out to be 100%. The “efficacy (spider mites killed)” value in the data set with Tetranychus urticae came out at 90%.

In the case of `CCS(=O)(=O)c1c(-c2nc3cc(C(F)(F)F)n(C)c(=O)c3n2C)nc2n1CCC(C)(C)C2` [Example I-10, 2-(3-Ethylsulfonyl-7,7-dimethyl-6,8-dihydro-5H-imidazo[1,2-a]pyridin-2-yl)-3,5-dimethyl-6-(trifluoromethyl)imidazo[4,5-c]pyridin-4-one], the efficacy in the data set with Diabrotica balteata is 100%. The pest or weed control at 100 g/ha in the data set with Myzus persicae [3] was 90%. Besides, the pest or weed control at 4 ppm in the data set with Myzus persicae [2] was found to be 100%. In addition, in data set [1], the chromatographic logP was found to be 2.66.

In turn, `CCS(=O)(=O)c1c(-c2nc3cc(C(F)(F)F)n(C)c(=O)c3n2C)nc2n1CCCC2C` (centres unmarked) [Example I-11] came in with an efficacy with Diabrotica balteata of 100%. In the data set with Myzus persicae [3], the pest or weed control at 100 g/ha turned out to be 90%. The pest or weed control at 4 ppm in the data set on Myzus persicae [2] amounted to 100%.

On to `CCS(=O)(=O)c1c(-c2nc3cc(C(F)(F)F)n(C)c(=O)c3n2C)nc2cc(S(=O)(=O)C3CC3)ccn12` [Example I-12, 2-[7-(Cyclopropylsulfonyl)-3-(ethylsulfonyl)imidazo[1,2-a]pyridin-2-yl]-3,5-dimethyl-6-(trifluoromethyl)-3,5-dihydro-4H-imidazo[4,5-c]pyridin-4-one], for which the efficacy in the data set with Diabrotica balteata is 100%. Moreover, in the data set with Myzus persicae [2], the pest or weed control at 4 ppm came to 100%. Besides, the “efficacy (caterpillars killed)” value in the data set with Spodoptera frugiperda is recorded as 100%. In data set [1], this molecule returned a chromatographic logP of 2.59.
